# Laboratory results taken from patent US10653676B2 (Dana-Farber Cancer Institute, Inc., priority 2010, dated 2020).
# Key:
# [1] = system: HeLa cells; experiment: camptothecin-induced RAD51 and H2AX foci formation, immunofluorescence; format: cell-based, human; details: camptothecin for 1 hr after pre-treatment; FIG. 8C
# Protocol: FIG. 8 is a composite figure showing that C527 inhibits homologous recombination repair. […] U2OS-DRGFP cells were transfected with I-SCE-I and then exposed to C527 at the indicated concentration for 24 h. Cells were then subjected to flow cytometry analysis. The percentage of GFP positive cells was normalized by solvent vehicle treated group. […] HeLa cells, integrated with the NHEJ reporter, were treated with C527 and analyzed as described in (FIG. 8A). […] HeLa cells were pre-treated with DMSO or C527 at the indicated concentration and then exposed to camptothecin (CPT) for 1 hr. RAD51 foci were detected using immunofluorescence.
# Cells were pre-extracted with extraction buffer (0.25% Triton-X100 in 200 mM HEPES at pH 7.4, 50 mM NaCl, 3 mM MgCl2 and 300 mM sucrose) on ice for 2 min prior to fixation with 4% paraformaldehyde. RAD51 foci were detected using anti-RAD51 antibody (Santa Cruz Biotechnology) and visualized using Alexa Fluor 488-conjugated secondary antibody. The quantification of cells with RAD51 foci was performed by counting the number of cells with RAD51 foci. At least 200 cells were counted from each sample. Data are represented as mean±SD from three independent experiments.
# Camptothecin activated the assembly of RAD51 and H2AX foci.
# [2] = system: FANCD2-Ub and FANCI-Ub levels in HeLa cells; experiment: cell-based assay of monoubiquitinated FANCD2 and FANCI levels by immunoblotting; set-up: species or system human; details: eight hours, increasing concentrations, FIG. 3
# Protocol: Candidate USP1 inhibitors from initial and secondary screens were then used in cell-based assays to look for USP1 inhibition in vivo using levels of FANCD2-Ub and PCNA-Ub as biomarkers for inhibition. For the cell-based assay, cells were treated with the candidate compounds and levels of monoubiquitinated FANCD2 and PCNA were tested both with and without DNA damage. USP1 inhibition was detected as high level of endogenous monoubiquitinated FANCD2 and PCNA. For this assay HeLa and HEK293T cells were treated with selected concentrations of these compounds and grown in Dulbecco's modified Eagle's medium supplemented with 15% heat-inactivated fetal calf serum in a humidified 5% CO2 incubator at 37° C. Damage was induced by both UV irradiation using Stratalinker (Stratagene) and treatment with mitomycin C (MMC, Sigma). After cell lysis, levels of monoubiquitinated FANCD2 and PCNA in whole cell lysate was tested by immunoblotting with anti-FANCD2 antibody (sc-20022; Santa Cruz Biotechnology) and anti-PCNA antibody (sc-56; Santa Cruz Biotechnology). Protection from chromosome aberrations were also tested in UV/MMC-damaged cells treated with candidate USP1 inhibitors using standard chromosome breakage assay. Yang et al. (2001) Blood 98:3435-40. […]
# [3] = system: HeLa cells; experiment: sensitization of HeLa cells to mitomycin C, cell survival by redox dye; format: cell-based, human; details: 20 micromolar compound; MMC 0, 200, or 500 nM; FIG. 4
# Protocol: HeLa cells were pretreated for six hours with selected concentrations (0, 200, or 500 nM) of mitomycin C (MMC), washed, then exposed to selected concentrations (0, 10, or 20 μM) of the compound of Formula IV (527) for eight hours. Cell survival was measured by redox dye.
# [4] = target: T1, USP1 (Homo sapiens, UniProt O94782); experiment: Ub-vinyl sulfone conjugation of USP1 in lysates of compound-treated HeLa cells; format: cell-based
# T1 construct: endogenous in cells; host or cells: HeLa
# T1 sequence (O94782 whole entry): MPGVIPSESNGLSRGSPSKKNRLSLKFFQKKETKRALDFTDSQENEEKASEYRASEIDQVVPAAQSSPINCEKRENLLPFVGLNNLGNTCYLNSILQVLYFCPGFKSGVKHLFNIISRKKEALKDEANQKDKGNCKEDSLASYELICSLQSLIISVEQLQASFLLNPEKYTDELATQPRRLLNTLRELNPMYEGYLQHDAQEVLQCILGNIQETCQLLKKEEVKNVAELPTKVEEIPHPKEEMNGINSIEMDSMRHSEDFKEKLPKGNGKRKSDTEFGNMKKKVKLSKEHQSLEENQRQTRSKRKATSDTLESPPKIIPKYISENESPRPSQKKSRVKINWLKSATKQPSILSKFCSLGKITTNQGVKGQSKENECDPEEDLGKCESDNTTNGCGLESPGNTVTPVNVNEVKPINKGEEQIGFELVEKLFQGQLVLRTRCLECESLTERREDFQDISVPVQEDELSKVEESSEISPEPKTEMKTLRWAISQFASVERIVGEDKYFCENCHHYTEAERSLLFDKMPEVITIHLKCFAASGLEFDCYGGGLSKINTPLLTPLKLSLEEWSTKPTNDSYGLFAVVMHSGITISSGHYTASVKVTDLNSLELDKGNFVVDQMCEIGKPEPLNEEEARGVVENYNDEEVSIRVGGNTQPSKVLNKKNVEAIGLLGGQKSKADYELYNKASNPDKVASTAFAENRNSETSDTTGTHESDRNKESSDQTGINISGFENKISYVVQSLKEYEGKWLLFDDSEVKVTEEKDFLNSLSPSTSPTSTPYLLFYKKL
# T1 sequence (Q8TAF3 whole entry partner): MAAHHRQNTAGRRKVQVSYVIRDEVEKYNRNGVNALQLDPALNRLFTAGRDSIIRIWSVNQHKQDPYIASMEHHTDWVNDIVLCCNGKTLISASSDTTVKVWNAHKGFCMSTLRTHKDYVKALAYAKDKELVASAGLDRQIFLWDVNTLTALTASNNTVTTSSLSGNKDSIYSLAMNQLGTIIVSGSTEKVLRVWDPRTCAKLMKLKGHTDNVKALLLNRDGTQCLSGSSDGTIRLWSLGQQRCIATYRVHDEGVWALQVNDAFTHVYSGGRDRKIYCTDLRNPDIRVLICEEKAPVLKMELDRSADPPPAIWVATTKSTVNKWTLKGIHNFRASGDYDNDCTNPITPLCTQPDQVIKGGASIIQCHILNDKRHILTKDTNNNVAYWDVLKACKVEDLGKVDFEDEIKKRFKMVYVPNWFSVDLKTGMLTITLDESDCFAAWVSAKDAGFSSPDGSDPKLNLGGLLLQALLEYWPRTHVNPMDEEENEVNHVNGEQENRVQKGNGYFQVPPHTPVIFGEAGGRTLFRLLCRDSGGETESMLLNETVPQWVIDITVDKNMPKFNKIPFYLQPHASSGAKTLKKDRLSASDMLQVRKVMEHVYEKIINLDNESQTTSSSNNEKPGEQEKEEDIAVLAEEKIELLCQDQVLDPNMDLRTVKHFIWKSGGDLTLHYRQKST
# Protocol: In one set of experiments, HeLa cells were incubated in the presence of 50 μM of selected inhibitors including the compound of Formula III (933) and the compound of Formula IV (527) for 2, 4, or 6 hours, followed by cell lysis. […] Lysates were incubated with the Ub-vinyl sulfone (Ub-Vs) reagent for 40 minutes. Proteins were electrophoresed on SDS-PAGE, transferred to nitrocellulose, and immunoblotted with the anti-USP1 antibody.
# HeLa cells were incubated with the compound of Formula IV (527) for eight hours, followed by cell lysis and incubation of protein extract with Ub-vinyl sulfone.
# [5] = target: T2, UCH-L1 (Homo sapiens, UniProt P09936); experiment: ubiquitin-AMC assay with UCH-L1; format: biochemical; details: in vitro
# T2 sequence (P09936 1-223): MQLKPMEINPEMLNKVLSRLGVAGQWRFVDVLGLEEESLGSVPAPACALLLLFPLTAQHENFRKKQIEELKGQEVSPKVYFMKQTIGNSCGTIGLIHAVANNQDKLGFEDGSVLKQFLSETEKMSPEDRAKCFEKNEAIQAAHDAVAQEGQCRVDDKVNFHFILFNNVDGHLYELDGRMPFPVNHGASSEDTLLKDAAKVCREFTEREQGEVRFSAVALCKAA
# Protocol: FIG. 6 is a composite figure showing that C527 is a pan-deubiqutinating enzyme inhibitor […]. Ubiquitin-AMC assay was performed using purified (FIG. 6A) USP12/UAF1/WDR20 (FIG. 6B) USP5 and (FIG. 6C) UCH-L1. Enzymes were incubated with DMSO or C527 at indicated concentrations for 3 h, followed by the addition of Ub-AMC at 0.5 μM final concentration. The fluorescence at […] was measured to indicate the enzymatic activity. FIG. 6D is a summary showing the IC50 of C527 against the indicated enzymes.
# The in vitro enzymatic assays were performed using purified proteins from Sf9 cells as described previously (Cohn et al.). The assays using ubiquitin-AMC (Ub-7-amido-4-methylcoumarin; Boston Biochem) as substrate was carried out in a reaction buffer containing 20 mM HEPES-KOH (pH 7.8), 20 mM NaCl, 0.1 mg/ml ovalbumin, 0.5 mM EDTA and 10 mM dithiothreitol. The fluorescence was measured by FluoStar Galaxy Fluorometer (BMG Labtech). For the Ub-vinylsulfone (VS) assay, the proteins were incubated with Ub-VS at 0.5 μM final concentration for 1 h at 30° C., followed by the immunoblotting analysis.
# To examine the specificity of C527 in USP1/UAF1 inhibition, its ability to inhibit other DUB enzymes in vitro was examined. […] Moreover, the active complex of USP12 contains an additional WD40 subunit (WDR20). […]
smiles,measurement,setting,value
O=C1c2ccccc2C(=O)c2oc(-c3ccc(F)cc3)nc21 [Formula IV (527)],H2AX foci formation,[1],non-detectable effect
same,RAD51 foci formation,[1],inhibited RAD51 foci formation
same,FANCD2-Ub levels,[2],dose-dependent increase
same,FANCI-Ub levels,[2],dose-dependent increase
same,sensitization to the cytotoxic effects of MMC,[3],sensitization of the HeLa cells
same,USP1 deubiquitinase activity (Ub-vinyl sulfone),"[4]; HeLa cells incubated eight hours, increasing concentrations, FIG. 3",dose-dependent blockade
same,Ub-Vs conjugation of USP1 / deubiquitinase activity,"[4]; HeLa cells, 50 μM inhibitor for 2, 4, or 6 hours, lysates with Ub-Vs 40 minutes, FIG. 2",potent inhibitor of deubiquitinase activity
same,inhibitory effect on UCH-L1,[5],considerably less inhibitory effect
